From PubChem BioAssay (NCI)
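1) Cells in 96-well plates. 2) Compound, 48 h, 5 concentrations. 3) Linear interpolation between surrounding doses. 4) Unreached endpoint = highest concentration. GI50 = concentration required for 50% inhibition of growth. Definition used: TGI = concentration required for complete inhibition of growth.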

Legend:
Assay in all cases: DTP human tumour cell line panel, 48 h
[1] = test system: HOP-92 NSCLC
[2] = test system: M14 melanoma
[3] = test system: RXF 393 renal
[4] = test system: OVCAR-8 ovarian
[5] = test system: CCRF-CEM leukemia
[6] = test system: HL-60(TB) leukemia
[7] = test system: SK-OV-3 ovarian
[8] = test system: SNB-75 CNS
[9] = test system: HCT-116 colon
[10] = test system: TK-10 renal
[11] = test system: SK-MEL-2 melanoma
[12] = test system: RPMI-8226 leukemia
[13] = test system: MDA-MB-231 breast
[14] = test system: 786-0 renal
[15] = test system: SK-MEL-28 melanoma
[16] = test system: SK-MEL-5 melanoma
[17] = test system: SR leukemia
[18] = test system: HT29 colon
[19] = test system: HCC-2998 colon
[20] = test system: EKVX NSCLC
[21] = test system: UO-31 renal
[22] = test system: SN12C renal
[23] = test system: NCI-H460 lung
[24] = test system: SNB-19 CNS
[25] = test system: NCI-H522 lung
[26] = test system: CAKI-1 renal
[27] = test system: SF-295 CNS
[28] = test system: HS 578T breast
[29] = test system: SW-620 colon
[30] = test system: IGROV1 ovarian
[31] = test system: K-562 leukemia
[32] = test system: BT-549 breast
[33] = test system: NCI/ADR-RES ovarian
[34] = test system: SF-268 CNS
[35] = test system: T-47D breast
[36] = test system: NCI-H23 lung
[37] = test system: MDA-MB-435
[38] = test system: OVCAR-3 ovarian
[39] = test system: HOP-62 NSCLC
[40] = test system: MALME-3M melanoma
[41] = test system: NCI-H226 lung
[42] = test system: PC-3 prostate
[43] = test system: MOLT-4 leukemia
[44] = test system: DU-145 prostate
[45] = test system: U251 CNS
[46] = test system: A498 renal
[47] = test system: KM12 colon
[48] = test system: COLO 205 colon
[49] = test system: MCF7 breast
[50] = test system: UACC-62 melanoma
[51] = test system: OVCAR-4 ovarian
[52] = test system: A549 NSCLC
[53] = test system: LOX IMVI melanoma
[54] = test system: OVCAR-5 ovarian
[55] = test system: ACHN renal
[56] = test system: SF-539 CNS
[57] = test system: HCT-15 colon
[58] = test system: UACC-257 melanoma

Q: `COc1ccc(/C=N/NC(=O)c2[nH]c3ccc(Br)cc3c2-c2ccccc2)s1` was tested. Which GI50 [1] did it give?
A: The GI50 was 1280 nM.

Q: What about the TGI [1] of the same molecule?
A: Its TGI is over 100000 nM.

Q: What about the GI50 [2] of the same molecule?
A: The GI50 was 142 nM.

Q: And the TGI [2]?
A: The TGI was over 100000 nM.

Q: And the GI50 [3]?
A: The GI50 was 299 nM.

Q: And the TGI [3]?
A: The TGI was 910 nM.

Q: And the GI50 [4]?
A: Its GI50 is 59.3 nM.

Q: What about the GI50 [5] of the same molecule?
A: Its GI50 is 121 nM.

Q: What about the TGI [5] of the same molecule?
A: The TGI was over 100000 nM.

Q: What about the GI50 [6] of the same molecule?
A: The GI50 was 77.8 nM.

Q: And the TGI [6]?
A: The TGI was 2690 nM.

Q: What about the GI50 [7] of the same molecule?
A: Its GI50 is 219 nM.

Q: And the TGI [7]?
A: The TGI was 99400 nM.

Q: What about the GI50 [8] of the same molecule?
A: The GI50 was 148 nM.

Q: And the TGI [8]?
A: The TGI was 20000 nM.

Q: And the GI50 [9]?
A: The GI50 was 103 nM.

Q: What about the GI50 [10] of the same molecule?
A: Its GI50 is 3720 nM.

Q: And the TGI [10]?
A: Its TGI is over 75100 nM.

Q: What about the GI50 [11] of the same molecule?
A: The GI50 was 93.5 nM.

Q: And the TGI [11]?
A: The TGI was 36400 nM.

Q: What about the GI50 [12] of the same molecule?
A: Its GI50 is 118 nM.

Q: And the TGI [12]?
A: Its TGI is over 100000 nM.

Q: And the GI50 [13]?
A: The GI50 was 336 nM.

Q: What about the TGI [13] of the same molecule?
A: Its TGI is 15700 nM.

Q: And the GI50 [14]?
A: The GI50 was 152 nM.

Q: And the TGI [14]?
A: The TGI was over 100000 nM.

Q: What about the GI50 [15] of the same molecule?
A: The GI50 was 745 nM.

Q: What about the TGI [15] of the same molecule?
A: The TGI was over 100000 nM.

Q: What about the GI50 [16] of the same molecule?
A: Its GI50 is 101 nM.

Q: What about the TGI [16] of the same molecule?
A: Its TGI is 394 nM.

Q: And the GI50 [17]?
A: Its GI50 is 102 nM.

Q: What about the TGI [17] of the same molecule?
A: The TGI was over 100000 nM.

Q: And the GI50 [18]?
A: Its GI50 is 84.6 nM.

Q: What about the TGI [18] of the same molecule?
A: Its TGI is 3290 nM.

Q: What about the GI50 [19] of the same molecule?
A: The GI50 was 349 nM.

Q: And the TGI [19]?
A: The TGI was over 71600 nM.

Q: And the GI50 [20]?
A: Its GI50 is 3550 nM.

Q: What about the TGI [20] of the same molecule?
A: The TGI was over 100000 nM.

Q: What about the GI50 [21] of the same molecule?
A: Its GI50 is 188 nM.

Q: What about the TGI [21] of the same molecule?
A: Its TGI is over 100000 nM.

Q: What about the GI50 [22] of the same molecule?
A: Its GI50 is 116 nM.

Q: And the TGI [22]?
A: Its TGI is over 42100 nM.

Q: And the GI50 [23]?
A: Its GI50 is 246 nM.

Q: What about the TGI [23] of the same molecule?
A: Its TGI is 3630 nM.

Q: What about the GI50 [24] of the same molecule?
A: The GI50 was 275 nM.

Q: What about the TGI [24] of the same molecule?
A: Its TGI is over 95200 nM.

Q: And the GI50 [25]?
A: Its GI50 is 19.3 nM.

Q: And the TGI [25]?
A: Its TGI is 54.4 nM.

Q: What about the GI50 [26] of the same molecule?
A: The GI50 was 168 nM.

Q: What about the TGI [26] of the same molecule?
A: Its TGI is over 57300 nM.

Q: And the GI50 [27]?
A: The GI50 was 106 nM.

Q: What about the TGI [27] of the same molecule?
A: The TGI was 15100 nM.

Q: What about the GI50 [28] of the same molecule?
A: Its GI50 is 1140 nM.

Q: What about the TGI [28] of the same molecule?
A: The TGI was over 31400 nM.

Q: What about the GI50 [29] of the same molecule?
A: The GI50 was 147 nM.

Q: What about the TGI [29] of the same molecule?
A: The TGI was over 100000 nM.

Q: What about the GI50 [30] of the same molecule?
A: The GI50 was 123 nM.

Q: What about the TGI [30] of the same molecule?
A: Its TGI is 25200 nM.

Q: And the GI50 [31]?
A: The GI50 was 113 nM.

Q: And the TGI [31]?
A: The TGI was over 100000 nM.

Q: What about the GI50 [32] of the same molecule?
A: The GI50 was 88.5 nM.

Q: What about the TGI [32] of the same molecule?
A: The TGI was 367 nM.

Q: And the GI50 [33]?
A: The GI50 was 39.8 nM.

Q: What about the TGI [33] of the same molecule?
A: The TGI was 4360 nM.

Q: And the GI50 [34]?
A: Its GI50 is 532 nM.

Q: And the TGI [34]?
A: The TGI was over 100000 nM.

Q: And the GI50 [35]?
A: Its GI50 is 7100 nM.

Q: And the TGI [35]?
A: The TGI was over 100000 nM.

Q: And the GI50 [36]?
A: The GI50 was 124 nM.

Q: And the TGI [36]?
A: Its TGI is over 47700 nM.

Q: And the GI50 [37]?
A: Its GI50 is 65.6 nM.

Q: What about the TGI [37] of the same molecule?
A: The TGI was 153 nM.

Q: What about the GI50 [38] of the same molecule?
A: Its GI50 is 249 nM.

Q: And the TGI [38]?
A: The TGI was 823 nM.

Q: What about the GI50 [39] of the same molecule?
A: Its GI50 is 455 nM.

Q: And the TGI [39]?
A: Its TGI is over 87800 nM.

Q: What about the GI50 [40] of the same molecule?
A: Its GI50 is 148 nM.

Q: What about the TGI [40] of the same molecule?
A: Its TGI is over 70300 nM.

Q: And the GI50 [41]?
A: The GI50 was 115 nM.

Q: What about the TGI [41] of the same molecule?
A: Its TGI is 30200 nM.

Q: And the GI50 [42]?
A: Its GI50 is 263 nM.

Q: And the TGI [42]?
A: Its TGI is over 89400 nM.

Q: What about the GI50 [43] of the same molecule?
A: Its GI50 is 113 nM.

Q: And the TGI [43]?
A: Its TGI is over 100000 nM.

Q: And the GI50 [44]?
A: Its GI50 is 135 nM.

Q: What about the TGI [44] of the same molecule?
A: Its TGI is 45700 nM.

Q: What about the GI50 [45] of the same molecule?
A: The GI50 was 259 nM.

Q: And the TGI [45]?
A: Its TGI is over 100000 nM.

Q: And the GI50 [46]?
A: Its GI50 is 33800 nM.

Q: What about the TGI [46] of the same molecule?
A: Its TGI is over 100000 nM.

Q: What about the GI50 [47] of the same molecule?
A: The GI50 was 301 nM.

Q: And the TGI [47]?
A: The TGI was over 60500 nM.

Q: And the GI50 [48]?
A: Its GI50 is 195 nM.

Q: And the TGI [48]?
A: The TGI was 375 nM.

Q: And the GI50 [49]?
A: Its GI50 is 110 nM.

Q: What about the TGI [49] of the same molecule?
A: The TGI was 14400 nM.

Q: What about the GI50 [50] of the same molecule?
A: The GI50 was 146 nM.

Q: And the TGI [50]?
A: Its TGI is over 51500 nM.

Q: And the GI50 [51]?
A: The GI50 was 224 nM.

Q: And the TGI [51]?
A: The TGI was 57600 nM.

Q: What about the GI50 [52] of the same molecule?
A: Its GI50 is 160 nM.

Q: What about the TGI [52] of the same molecule?
A: Its TGI is over 100000 nM.

Q: And the GI50 [53]?
A: Its GI50 is 38.4 nM.

Q: What about the TGI [53] of the same molecule?
A: The TGI was over 100000 nM.

Q: What about the GI50 [54] of the same molecule?
A: Its GI50 is 136 nM.

Q: And the TGI [54]?
A: The TGI was over 100000 nM.

Q: And the GI50 [55]?
A: Its GI50 is 169 nM.

Q: And the TGI [55]?
A: Its TGI is over 52800 nM.

Q: What about the GI50 [56] of the same molecule?
A: The GI50 was 72.4 nM.

Q: What about the TGI [56] of the same molecule?
A: The TGI was 206 nM.

Q: And the GI50 [57]?
A: The GI50 was 141 nM.

Q: And the TGI [57]?
A: The TGI was over 37000 nM.

Q: And the GI50 [58]?
A: The GI50 was 283 nM.

Q: And the TGI [58]?
A: The TGI was over 100000 nM.
